Experimental data from ChEMBL document CHEMBL5528035, “Design, Synthesis, and Biological Evaluation for First GPX4 and CDK Dual Inhibitors” (J Med Chem, 2024).
Activity calls are given as the source filed them. The calls are words filed in the database; no cut-off is given here.

What was measured:
HCT-116 [1] = test: Induction of apoptosis in human HCT-116 cells assessed as downregulation of BCL-2 expression at 0.5 to 2 uM incubated for 24 hrs by Western blotting analysis; format: functional, cell-based; details: dose 0.5-2 µM
[2] = Toxicity in BALB/c mouse xenografted with human MDA-MB-231 cells assessed as morphological change in heart at 40 mg/kg,ip administrated for 21 consecutive days by hematoxylin and eosin staining based analysis; format: organism-based; details: in vivo
[3] = Toxicity in BALB/c mouse xenografted with human MDA-MB-231 cells assessed as morphological change in kidney at 40 mg/kg,ip administrated for 21 consecutive days by hematoxylin and eosin staining based analysis; format: organism-based; details: in vivo
MDA-MB-231 [4] = test: Induction of cell cycle arrest in human MDA-MB-231 cells assessed as downregulation of E2F1 expression at 0.5 to 2 uM incubated for 24 hrs by Western blotting analysis; format: functional, cell-based; details: dose 0.5-2 µM
MDA-MB-231 [5] = test: Induction of ferroptosis in human MDA-MB-231 cells assessed as increase in intracellular ferrous ion level at 0.5 to 2 uM incubated for 24 hrs by ferroOrange probe based confocal laser scanning microscopic analysis; format: functional, cell-based; details: dose 0.5-2 µM
[6] = Half life in human liver microsomes in presence of NADPH incubated for 5 to 45 mins by LC/MS analysis; format: ADME, Microsome; details: time 5-45 min
[7] = molecular target: CDK6/cyclin D3 (Homo sapiens) (UniProt P30281+Q00534); test: Inhibition of CDK6/CyclinD3 (unknown origin) at 100 nM preincubated for 15 mins followed by substrate and ATP addition incubated for 10 mins by ADP-glo luminescent assay relative to control; format: protein-complex assay; details: time 25.0 min
HCT-116 [8] = test: Induction of ferroptosis in human HCT-116 cells assessed as increase in intracellular lipid peroxide level incubated for 24 hrs by flow cytometric analysis; format: functional, cell-based
[9] = Intrinsic clearance in human liver microsomes in presence of NADPH incubated for 5 to 45 mins by LC/MS analysis; format: ADME, Microsome; details: time 5-45 min, read-out: CLH
[10] = Half life in Sprague-Dawley rat at 10 mg/kg,iv administration measured upto 24 hrs by LC-MS/MS analysis; format: ADME, organism-based; details: in vivo
MDA-MB-231 [11] = test: Induction of ferroptosis in human MDA-MB-231 cells assessed as increase in intracellular lipid peroxide level incubated for 24 hrs by flow cytometric analysis; format: functional, cell-based
HCT-116 [12] = test: Induction of ferroptosis in human HCT-116 cells assessed as increase in intracellular lipid peroxide level incubated for 24 hrs by […] staining based confocal laser scanning microscopic analysis; format: functional, cell-based
MDA-MB-231 [13] = test: Induction of apoptosis in human MDA-MB-231 cells incubated for 24 hrs by annexin-V-FITC/PI staining based flow cytometric analysis; format: functional, cell-based
MDA-MB-231 [14] = test: Antitumor activity against human MDA-MB-231 cells xenografted in BALB/c mouse assessed as decrease in GPX4 expression at 40 mg/kg,ip administrated for 21 consecutive days by immunohistochemistry; format: functional, organism-based
[15] = Toxicity in BALB/c mouse xenografted with human MDA-MB-231 cells assessed as morphological change in kidney at 20 mg/kg,ip administrated for 21 consecutive days by hematoxylin and eosin staining based analysis; format: organism-based; details: in vivo
[16] = Cmax in Sprague-Dawley rat at 10 mg/kg,iv administration measured upto 24 hrs by LC-MS/MS analysis; format: ADME, organism-based; details: in vivo
[17] = Clearance in Sprague-Dawley rat at 10 mg/kg,iv administration measured upto 24 hrs by LC-MS/MS analysis; format: ADME, organism-based; details: in vivo
[18] = MRT (0 to t) in Sprague-Dawley rat at 10 mg/kg,iv administration measured upto 24 hrs by LC-MS/MS analysis; format: ADME, organism-based; details: in vivo
MDA-MB-231 [19] = test: Induction of cell cycle arrest in human MDA-MB-231 cells assessed as downregulation of phoshorylated Rb at 0.5 to 2 uM incubated for 24 hrs by Western blotting analysis; format: functional, cell-based; details: dose 0.5-2 µM
[20] = Toxicity in ICR mouse assessed as lethal dose at ip administration for 14 days; format: organism-based; details: in vivo, time 14 day
[21] = Toxicity in BALB/c mouse xenografted with human MDA-MB-231 cells assessed as morphological change in spleen at 20 mg/kg,ip administrated for 21 consecutive days by hematoxylin and eosin staining based analysis; format: organism-based; details: in vivo
HCT-116 [22] = test: Induction of ferroptosis in human HCT-116 cells assessed as downregulation of GPX4 expression incubated for 24 hrs by Western blotting analysis; format: functional, cell-based

In the case of `COc1ccc2c(c1)NC(=O)/C2=C1\Nc2ccccc2\C1=N/OCCCNC(=O)CCn1cc(COc2ccc(N(C(=O)CCl)C(C(=O)NCCc3ccccc3)c3cccs3)cc2Cl)nn1` (configuration not stated), the Activity (HCT-116 [1]) is reported as “Active”, the Activity [2] is reported as “Non-Toxic” and the Activity [3] is reported as “Non-Toxic”. The Activity (MDA-MB-231 [4]) was “Active”, the Activity (MDA-MB-231 [5]) was “Active” and the half-life [6] was 0.978 h. For the same molecule, the inhibition [7] was 51.8%, the Activity (HCT-116 [8]) was “Dose-Dependent Effect” and the CLint scaled [9] was 27.3 mL/min/kg. The half-life [10] was 5.4 h, the Activity (MDA-MB-231 [11]) was “Dose-Dependent Effect” and the Activity (HCT-116 [12]) was “Dose-Dependent Effect”. The Activity (MDA-MB-231 [13]) was “Dose-Dependent Effect”, the Activity (MDA-MB-231 [14]) was “Active” and the Activity [15] was “Non-Toxic”. It also gave a Cmax [16] of 9230 ng/mL, a clearance [17] of 10.2 mL/min/kg and an MRT last at 24 h [18] of 3.6 h. The Activity (MDA-MB-231 [19]) was “Active”, the LD50 at 336 h [20] was 185 mg/kg and the Activity [21] was “Non-Toxic”. For the same molecule, the Activity (HCT-116 [22]) was “Dose-Dependent Effect”.
